Results reported in patent US20020197689A1, “Insecticidal peptides and methods for use of same” (priority 2000, published 2002).
Entries after “also recorded” stand apart in the source; their conditions may differ. Where no end group is shown, it is not given here.

Columns and labels:
[1] = system: Spodoptera litura early third-instar larvae; test: Microinjection bioassay of insecticidal activity in Spodoptera litura third-instar larvae; type: in vivo; settings: for insecticidal activity (in words): S. litura third instar larvae; for LD50: S. litura larvae, 50% mortality at 24 hours post-injection
Description: Due to the small amounts of material involved, bioassays are realized on a microscale, using a microinjection technique as described below. Drosophila melanogaster was used first as an insect model since it is amenable to injection of volumes of 50 nl volumes or less, and is very sensitive to spider toxins. In order to confirm activity against an economically important crop pest, Spodoptera litura early third-instar larvae were also used. S. litura is a highly polyphagous species, and is considered an international pest on cotton, tobacco, tomato, cabbage, cauliflower, peanuts, beans and other plants. However, S. litura is more resistant to toxins than D. melanogaster, and it requires injection of 10 to 100-fold higher doses. Application of the microinjection technique to S. litura larvae enabled its use as a test insect while lowering the amounts of sample used in the bioassays. In particular, early 3rd instar larvae (3 to 5 mg) can be injected successfully with volumes up to 800 nl of toxin composition. Lethal and paralytic activity of may be evaluated using D. melanogaster adult flies (˜0.7 mg/fly) and S. litura early third-instar larvae (5-8 mg/larva). See Escoubas, P., Pahna, H. F., Nakajima, T. (1995), “A Microinjection technique using Drosophila melanogaster for bioassay-guided isolation of neurotoxins in arthropod venoms”, Toxicon, 33(12), 1549-1555.
To perform the bioassay of SV toxin peptides, SV toxin peptides are injected into the dorsolateral area of Drosophila melanogaster adult flies or into the pronotum of 3rd instar Spodoptera litura larvae using a glass micropipette mounted on an automatic microinjector (A203XVY Nanoliter injector, WPI Precision Instruments, Sarasota, Fla., USA). Flies and larvae are examined five seconds after injection for evidence of involuntary contraction of body segments.

mice = test: Intracerebroventricular injection in mice; type: in vivo, mice (C57B16); settings: ICV injection, 2 micrograms per mouse
Description: Intracerebroventricular injections (0.1 111 crude venom-equivalent in 5 μl of 20 mg/ml BSA and 9 mg/ml NaCl) of each toxin were also performed on 20 g male mice (C57B16).

Substance: XacI (ECIGGGGGCSVFSGPSCCGGTCKCKFVLIFPKGCHCT)
- paralysis of larvae ([1]; isolated peptide, injection, assay procedure of Example 3): instantaneous paralysis
- time to some signs of recovery of treated larvae post-injection ([1]; possibly low injection dose, below the LD50): 8 to 12 h

Substance: PaspII (ACVGDGQRCASWSGPYCCDGYYCSCRSMPYCRCRNNS; disulfide (positions not given here); also: four disulfide bridges, pairing not given here)
- insecticidal activity (in words) ([1]; injection): insecticidal activity
- toxic effect on mice (mice): did have a toxic effect

Substance: PaspI (GCLGEGEKCADWSGPSCCDGFYCSCRSMPYCRCRNNS-NH2; disulfide (positions not given here); also: four disulfide bridges, pairing not given here)
- LD50 ([1]; injection): not significantly different from the LD50 measured for toxin AaIT
- LD50 ([1]; injection, listed as PaspI-NH2): 9.7+4.1 μg/g
- insecticidal activity (in words) ([1]; injection): most potent toxin towards S. litura; also recorded: greatest degree of insecticidal activity

Substance: PaspIV (ACATKNQRCASWAGPYCCDGFYCSCRSYPGCMCRPNS; disulfide (positions not given here); also: four disulfide bridges, pairing not given here)
- insecticidal activity (in words) ([1]; injection): insecticidal activity; also recorded: putatively least potent

Substance: PaspIII (ADCLNEGDWCADWSGPSCCGEMWCSCPGFGKCRCKK; disulfide (positions not given here); also: four disulfide bridges, pairing not given here)
- insecticidal activity (in words) ([1]; injection): insecticidal activity
